6 compounds from paper PMC4399389, “Identification of a laccase Glac15 from Ganoderma lucidum 77002 and its application in bioethanol production” (Biotechnology for Biofuels, 2015) can be followed below.

Holding throughout (test): oxidation, absorbance at […] nm
Holding throughout (format): biochemical, Ganoderma lucidum

For assay [1], the system named is T1, Glac15 (laccase, isoenzyme from G. lucidum 77002).
T1 construct: native secreted enzyme purified from culture filtrate (ultrafiltration, DEAE-Sepharose FF); signal peptide of 21 residues removed; N-terminus GIGPTTDLTISNADI; tryptic peptides matched Glac6 and Glac15 of strain Xiangnong No.1
Particulars: optimum pH 4.5; 50 mM citrate-phosphate buffer; optimal temperature 45 °C; O2 as co-substrate.

For assay [2] the test system is unchanged. The following applies: optimum pH 2.5; 50 mM citrate-phosphate buffer; optimal temperature 50 °C; O2 as co-substrate.
Assay [3] shares this test system. Particulars: optimum pH 5.0; 50 mM citrate-phosphate buffer; optimal temperature 45 °C; O2 as co-substrate.
Assay [4] has the same test system. The following applies: optimum pH 5.0; 50 mM citrate-phosphate buffer; optimal temperature 55 °C; O2 as co-substrate.
Assay [5] shares this test system. Particulars: optimum pH 4.5; 50 mM citrate-phosphate buffer; optimal temperature 50 °C; O2 as co-substrate.
Assay [6] shares this test system. The following applies: optimum pH 4.5; 50 mM citrate-phosphate buffer; optimal temperature 45 °C; O2 as co-substrate. This is another data set of the same source.

SMILES strings stand for the structures.

For orientation: Km means the substrate concentration at which the rate is half of its maximum. For `COc1cccc(OC)c1O` [2,6-DMP, 2,6-dimethoxyphenol], in assay [1], the Km was 120 µM. As for `CCn1c(=NN=c2sc3cc(S(=O)(=O)O)ccc3n2CC)sc2cc(S(=O)(=O)O)ccc21` [ABTS, 2,2′-azino-bis-(3-ethylbenzothiazoline-6-sulfonic acid)], the Michaelis-Menten constant (Km) in assay [2] amounted to 19 µM.

With `Oc1ccccc1O` [Catechol], the Km in assay [3] was 780 µM.

On to `COc1ccccc1O` [Guaiacol], for which the Km in assay [4] stood at 790 µM. `N[C@@H](Cc1ccc(O)c(O)c1)C(=O)O` [L-dopamine]: the Km in assay [5] was found to be 890 µM.

Take `COc1cc(C=NN=Cc2cc(OC)c(O)c(OC)c2)cc(OC)c1O` [Syringaldazine]: the Km in assay [6] is 62 µM.
